The record followed here is patent US11479587B2, “Cationic intrinsically disordered antimicrobial peptides” (priority 2016, dated 2022).

The term CC50 denotes the concentration giving 50% cytotoxicity. Low readings indicate greater toxicity to the cells, high ones lower toxicity to the cells. For orientation: HC50 means the concentration giving 50% haemolysis. A low value points to stronger haemolysis.

Where “and” joins values, the source holds several entries; their conditions need not be identical. Identical values can stand only once. Non-standard residues stand in square brackets, D forms with d. Residues, ends and D or L forms follow the SMILES beside them. No end group written: not given here. *: point of attachment. Palmitoyl = CCCCCCCCCCCCCCCC(=O)*; dOrn = NCCC[C@@H](N)C(=O)O

Data set [1] can be described thus: Cytotoxicity (resazurin) assay. Here is the method: For the cytotoxicity (resazurin) assay, HEK293 cells were counted manually in a Neubauer haemocytometer and plated at a density of 4000 cells/well into each well of the 384-well plates containing the 25×(2 μl) concentrated compounds. The medium used was Dulbecco's modified eagle medium (DMEM) supplemented with 10% foetal bovine serum (FBS). Cells were incubated together with the compounds for 20 h at 37° C., 5% CO2. To measure cytotoxicity, 5 μl (equals 100 μM final) resazurin was added to each well after incubation, and incubated for further 3 h at 37° C. with 5% CO2.
After final incubation fluorescence intensity was measured as F ex 560/10 nm, em 590/10 nm (F560/590) using a Tecan M1000 Pro monochromator plate reader. […] The concentration dependent percentage cytotoxicity was fitted to a dose response function (using Pipeline Pilot) and CC50 values determined.
For orientation: The colour change of resazurin is a common sign of viable cells or microbes.

A short description of the next data set: Hemolysis assay. The format is cell-based. The note with it: for HC50 at 1 h: human, washed erythrocytes from EDTA-blood, pH 7.4. Here is the method: For the hemolysis assays EDTA-blood was centrifuged at 800×g for 10 min, and the plasma and buffy coat were removed. The erythrocytes were washed three times and resuspended in 5% PBS, pH 7.4. The cells were then incubated with end-over-end rotation for 1 h at 37° C. in the presence of different concentrations of peptides (0, 3, 10, 30, 60 μm). 0.1% Triton X-100 (Sigma-Aldrich) served as positive control. The samples were then centrifuged at 800×g for 10 min.
The absorbance of hemoglobin release was measured at 540 nm and is expressed as % of Triton X-100-induced hemolysis. These values of triplicates were plotted with Graph Pad Prism 4 as a dose response curve and the CC50 was determined.

For another data set, the system named is S. aureus ATCC 6538. Description: CFU-assay, S. aureus-cidal activity. Type of data set: cell-based, Staphylococcus aureus. Here is the method: Thus, within the present invention, the antimicrobial activity is generally measured in nutrient deficient 10 mM sodium phosphate buffer pH 5.5, containing 0.25% glucose, using the CFU-assay according to Steinberg and Lehrer, 1997 (supra), unless otherwise indicated. The CFU-assay allows determination of the minimal bactericidal concentration (MBC, e.g., MBC90 and MBC100; i.e. the concentration of compound required to achieve a specified reduction in bacterial cell number (microbial death or killing)).
Various peptides corresponding to repeat domains of hornerin (HR 1-11: HRNR 2606-2628; HR 1-17: HRNR 2656-2684 and HR 1-18: HRNR 2656-2677) were tested for P. aeruginosa ATCC 10145-cidal activity in 10 mM Na-phosphate buffer pH 5.5, containing 0.25% glucose by counting the numbers of colonies of surviving bacteria at serial, twofold dilutions from 300 μg/ml down to 19 ng/ml of each peptide (CFU-assay; Steinberg and Lehrer, 1997, Methods Mol. Biol. 78, 169-186).
Staphylococcus aureus is a major skin pathogen, which causes skin infections, in particular in atopic dermatitis. The sensitivity of S. aureus ATCC 6538 towards several CIDAMPs was assessed using the CFU-assay as above (see Example 1). HR 1-18, which lacks S. aureus.-bactericidal activity, is converted in a S. aureus-cidal peptide, when all His are replaced by Arg (HR 1-18 4H-4R; see Table 13 and FIG. 9). […] HR 1-18 4H-4R is rich in Ser and Arg and contains a single Leu residue. When this single Leu was replaced by Gly in S. aureus-cidal HR 1-18 4H-4R (forming HR 1-18 4H-4R/L-G), S. aureus-cidal activity was abolished at both pH 7.0 and pH 5.5 (see Table 13 and FIG. 9).

For another data set, the system named is P. aeruginosa ATCC 10145. The data set is described as follows: CFU-assay, P. aeruginosa-cidal activity. The format is cell-based, Pseudomonas aeruginosa. Conditions: pH 5.0, 0.25% glucose.

For the compound SHHRPRLFHRRRH [LCE2B74-86], the CC50 in data set [1] was > 32 µg/mL. In addition, the HC50 in “Hemolysis assay” was > 300 µg/mL.
The corresponding values for GRRGSGLGRSSSRGQRGSGSGR [HR 1-18 HR] are > 32 µg/mL and > 300 µg/mL.
The corresponding values for `CCCCCCCCCCCCCCCC(=O)NCC(=O)N[C@@H](CCCCN)C(=O)NCC(=O)N[C@@H](CCCCN)C(=O)O` [Pal-GK4, Pal-GKGK] (HELM PEPTIDE1{[CCCCCCCCCCCCCCCC(=O)[*:2]].G.K.G.K}$$$$V2.0) are > 32 µg/mL and 50 µg/mL.
Consider “LRHGSGLGHSSSHGQHGSGSGR (Modified peptide derived from human hornerin (HR 1-18 G2656L))”, for which, in the data set on S. aureus ATCC 6538 (pH 5.5, 0.25% glucose), the MBC90 is 300 µg/mL and the MBC100 was >300 µg/mL. In the data set with P. aeruginosa ATCC 10145, the MBC90 amounted to 4.7 µg/mL and the MBC100 was >300 µg/mL.
As to SHHRHFRSHQCRR [LCE3C55-67], in data set [1], the CC50 was > 32 µg/mL. The HC50 in the data set “Hemolysis assay” was > 300 µg/mL.
With SHHRRRRSHCH [LCE1B78-88], in data set [1], the half-maximal cytotoxic concentration (CC50) was > 32 µg/mL.
Consider `CCCCCCCCCCCCCC(=O)NCC(=O)N[C@@H](CCCNC(=N)N)C(=O)N[C@@H](Cc1c[nH]cn1)C(=O)NCC(=O)N[C@@H](CO)C(=O)NCC(=O)N[C@@H](CC(C)C)C(=O)NCC(=O)N[C@@H](Cc1c[nH]cn1)C(=O)N[C@@H](CO)C(=O)N[C@@H](CO)C(=O)N[C@@H](CO)C(=O)N[C@@H](Cc1c[nH]cn1)C(=O)NCC(=O)N[C@@H](CCC(N)=O)C(=O)N[C@@H](Cc1c[nH]cn1)C(=O)NCC(=O)N[C@@H](CO)C(=O)NCC(=O)N[C@@H](CO)C(=O)NCC(=O)N[C@@H](CCCNC(=N)N)C(=O)O` [Myr-HR 1-18] (HELM PEPTIDE1{[CCCCCCCCCCCCCC(=O)[*:2]].G.R.H.G.S.G.L.G.H.S.S.S.H.G.Q.H.G.S.G.S.G.R}$$$$V2.0), for which, in data set [1], the CC50 is 32 µg/mL. In addition, the HC50 in “Hemolysis assay” is > 300 µg/mL.
The corresponding values for `CCCCCCCCCCCCCCCC(=O)NCC(=O)N[C@@H](CCCN)C(=O)NCC(=O)N[C@@H](CCCN)C(=O)O` [Pal-GOrn4, Pal-GOGO] (HELM PEPTIDE1{[CCCCCCCCCCCCCCCC(=O)[*:2]].G.[Orn].G.[Orn]}$$$$V2.0) are > 32 µg/mL and 80 µg/mL.
In the case of SHHRPRLFHRHRH [LCE2A70-82], in data set [1], the CC50 is > 32 µg/mL.
Turning to GRHGSGLGHSSSHGQHGSGSGR [HR 1-18], in data set [1], the CC50 is > 32 µg/mL and > 15.2 µM. Further, the “CC50/MBC90 (S.aureus)” value in the data set on S. aureus ATCC 6538 (pH 5.5) is given as “No activity”. In addition, in the data set “Hemolysis assay”, the HC50 is > 300 µg/mL and the 50% haemolytic concentration (HC50) at 1 h was > 143 µM.
In the case of “GRRGSGGGRSSSRGGRGSGSGR (Modified peptide derived from human hornerin (HR 1-18 4H-4R/L-G))”, in the data set on S. aureus ATCC 6538 (pH 5.5, 0.25% glucose), the MBC90 is >300 µg/mL and the MBC100 is >300 µg/mL. For the same compound, the “S. aureus-cidal activity (in words)” value in the data set with S. aureus ATCC 6538 (pH 7.0 and pH 5.5) is listed as “abolished”. Also, in the data set with P. aeruginosa ATCC 10145, the MBC90 worked out at 0.038 µg/mL and the MBC100 is 0.15 µg/mL.
`CCCCCCCCCCCCCCCC(=O)SC[C@H](NC(=O)[C@H](CCCNC(=N)N)NC(=O)CNC(=O)[C@H](CCCNC(=N)N)NC(=O)CNC(=O)[C@H](CCCNC(=N)N)NC(=O)CNC(=O)CNC(=O)[C@H](CCCNC(=N)N)NC(=O)CNC(=O)CNC(=O)[C@H](CCCNC(=N)N)NC(=O)[C@H](CCCNC(=N)N)NC(=O)CN)C(N)=O` [C-Pal-GR13] (H-GRRGGRGGRGRGRC(Palmitoyl)-NH2): the CC50 in data set [1] was > 32 µg/mL.
Consider `N=C(N)NCCC[C@H](NC(=O)[C@H](CC(=O)O)NC(=O)[C@H](CS)NC(=O)[C@H](CO)NC(=O)[C@H](CC(N)=O)NC(=O)[C@H](CO)NC(=O)[C@H](CCCNC(=N)N)NC(=O)[C@H](CCC(N)=O)NC(=O)[C@H](CCCNC(=N)N)NC(=O)[C@H](CCCNC(=N)N)NC(=O)[C@H](CS)NC(=O)[C@H](CCC(N)=O)NC(=O)[C@H](Cc1c[nH]cn1)NC(=O)[C@H](CO)NC(=O)[C@H](CCCNC(=N)N)NC(=O)[C@H](Cc1ccccc1)NC(=O)[C@H](Cc1c[nH]cn1)NC(=O)[C@H](CCCNC(=N)N)NC(=O)[C@H](Cc1c[nH]cn1)NC(=O)[C@H](Cc1c[nH]cn1)NC(=O)[C@@H](N)CO)C(=O)O` [LCE3C55-75] (H-SHHRHFRSHQCRRQRSNSCDR-OH), for which, in data set [1], the CC50 was > 32 µg/mL. Besides, the HC50 in the data set “Hemolysis assay” is > 300 µg/mL.
For `CCCCCCCCCCCCCCCC(=O)NCC(=O)N[C@H](CCCNC(=N)N)C(=O)N[C@H](CCCNC(=N)N)C(=O)NCC(=O)NCC(=O)N[C@H](CCCNC(=N)N)C(=O)NCC(=O)NCC(=O)N[C@H](CCCNC(=N)N)C(=O)O` [D-Pal-GR9] (HELM PEPTIDE1{[CCCCCCCCCCCCCCCC(=O)[*:2]].G.[dR].[dR].G.G.[dR].G.G.[dR]}$$$$V2.0), the half-maximal cytotoxic concentration (CC50) in data set [1] was > 32 µg/mL. In addition, the HC50 in “Hemolysis assay” was > 100 µg/mL.
Turning to `CCCCCCCCCCCCCCCC(=O)NCC(=O)N[C@H](CCCNC(=N)N)C(=O)NCC(=O)N[C@H](CCCNC(=N)N)C(=O)O` [D-Pal-GR4, Pal-GRDGRD] (HELM PEPTIDE1{[CCCCCCCCCCCCCCCC(=O)[*:2]].G.[dR].G.[dR]}$$$$V2.0), in data set [1], the CC50 was > 32 µg/mL. For the same compound, in “Hemolysis assay”, the 50% haemolytic concentration (HC50) stood at 300 µg/mL.
Consider GRRGGRGGRGRGR [GR13], for which, in data set [1], the 50% cytotoxic concentration (CC50) was > 23.6 µM. Besides, in “Hemolysis assay”, the 50% haemolytic concentration (HC50) at 1 h was > 220 µM.
In the case of `N=C(N)NCCC[C@H](NC(=O)[C@H](Cc1c[nH]cn1)NC(=O)[C@H](CO)NC(=O)[C@H](CCCNC(=N)N)NC(=O)[C@H](CCCNC(=N)N)NC(=O)[C@H](CS)NC(=O)[C@H](CCCNC(=N)N)NC(=O)[C@H](Cc1c[nH]cn1)NC(=O)[C@H](Cc1c[nH]cn1)NC(=O)[C@@H](N)CO)C(=O)N[C@@H](CS)C(=O)O` [LCE3A50-60] (H-SHHRCRRSHRC-OH), the CC50 in data set [1] was > 32 µg/mL.
With `CCCCCCCCCCCCCCCC(=O)NCC(=O)N[C@H](CCCN)C(=O)NCC(=O)N[C@H](CCCN)C(=O)O` [D-Pal-GOrn4, D-Pal-GODGOD] (Palmitoyl-G[dOrn]G[dOrn]-OH), the cytotoxic concentration (CC50) in data set [1] is > 32 µg/mL. Further, in the data set “Hemolysis assay”, the HC50 is 55 µg/mL.
With HAHSGHGQSTQRGSRTAGR [FLG-22082-2100], in data set [1], the CC50 was > 12.9 µM. Also, the HC50 at 1 h in the data set “Hemolysis assay” is > 121 µM.
`CCCCCCCCCCCCCCCC(=O)NCC(=O)N[C@H](CCCCN)C(=O)NCC(=O)N[C@H](CCCCN)C(=O)O` [D-Pal-GK4, D-Pal-GKDGKD] (HELM PEPTIDE1{[CCCCCCCCCCCCCCCC(=O)[*:2]].G.[dK].G.[dK]}$$$$V2.0): the 50% cytotoxic concentration (CC50) in data set [1] is > 32 µg/mL. In “Hemolysis assay”, the HC50 worked out at 40 µg/mL.
Regarding NHHRRHHRCR [LCE3D55-64], the CC50 in data set [1] was > 32 µg/mL.
In the case of “SRRSSSLSRSSSRSSRSSSSSR (Modified peptide derived from human hornerin (HR 1-18 4H-4R/9G-9S))”, the MBC90 amounted to 150 µg/mL against S. aureus ATCC 6538 (pH 5.5, 0.25% glucose); 75 µg/mL with S. aureus ATCC 6538 (pH 7.2, 0.25% glucose); 0.15 µg/mL with P. aeruginosa ATCC 10145. Moreover, the MBC100 is >300 µg/mL in the data set with S. aureus ATCC 6538 (pH 5.5, 0.25% glucose); >300 µg/mL in the data set with S. aureus ATCC 6538 (pH 7.2, 0.25% glucose); 1.18 µg/mL against P. aeruginosa ATCC 10145.
Consider SHHRHFRSHQCR [LCE3C55-66], for which, in data set [1], the CC50 was > 32 µg/mL.
